Experimental data published in PubChem BioAssay AID248 (DTP/NCI, 2004).
Several values for one entry are separate records, joined by “and”; a condition that tells them apart may be missing. Equal entries are not always repeated. Toxic doses and inconclusive results are not listed. No stated cut-off is given here; in the data, active means T/C of 150% or more; inactive means T/C below 125%.

Tested on: L1210 leukemia ip in BDF1 mice, survival T/C
Assay: NCI In Vivo Anticancer Drug Screen. Data for tumor model L1210 Leukemia (intraperitoneal) in B6D2F1 (BDF1) mice
Conditions: endpoint: mean survival time, higher = longer survival
Method in brief: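 Transplanted-tumor mice were given test agent; controls received vehicle only. Survival readings from the two groups were divided (treated over control).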

[1] = dose: 50.0 mg/kg/injection, schedule: Q01DX009 (ip), vehicle: saline
[2] = dose: 100.0 mg/kg/injection, schedule: Q01DX009 (ip), vehicle: saline
[3] = dose: 100.0 mg/kg/injection, schedule: Q04DX003 (ip), vehicle: saline with Tween-80
[4] = dose: 100.0 mg/kg/injection, schedule: Q04DX002 (ip), vehicle: saline with Tween-80
[5] = dose: 200.0 mg/kg/injection, schedule: Q04DX002 (ip), vehicle: saline with Tween-80
[6] = dose: 400.0 mg/kg/injection, schedule: Q04DX002 (ip), vehicle: saline with Tween-80
[7] = dose: 100.0 mg/kg/injection, schedule: Q04DX003 (ip), vehicle: Klucel (hydroxypropylcellulose) (HPC)
[8] = dose: 200.0 mg/kg/injection, schedule: Q04DX003 (ip), vehicle: Klucel (hydroxypropylcellulose) (HPC)
[9] = dose: 400.0 mg/kg/injection, schedule: Q04DX003 (ip), vehicle: Klucel (hydroxypropylcellulose) (HPC)
[10] = dose: 100.0 mg/kg/injection, schedule: Q01DX001 (ip), vehicle: saline with Tween-80
[11] = dose: 200.0 mg/kg/injection, schedule: Q01DX001 (ip), vehicle: saline with Tween-80
[12] = dose: 400.0 mg/kg/injection, schedule: Q01DX001 (ip), vehicle: saline with Tween-80
[13] = dose: 100.0 mg/kg/injection, schedule: Q04DX002 (ip), vehicle: Klucel (hydroxypropylcellulose) (HPC)
[14] = dose: 200.0 mg/kg/injection, schedule: Q04DX003 (ip), vehicle: saline with Tween-80
[15] = dose: 400.0 mg/kg/injection, schedule: Q04DX003 (ip), vehicle: saline with Tween-80
[16] = dose: 100.0 mg/kg/injection, schedule: Q04DX003 (ip), vehicle: saline

Measured: T/C

COC1N(C2CC(O)C(CO)O2)C(=O)NC(=O)C1(F)Br (centres undefined)
inactive: dose: 5.0 mg/kg/injection, schedule: Q01DX009 (ip), vehicle: saline 123 % of control | dose: 10.0 mg/kg/injection, schedule: Q01DX009 (ip), vehicle: saline 112 % of control | dose: 20.0 mg/kg/injection, schedule: Q01DX009 (ip), vehicle: saline 122 % of control | dose: 20.0 mg/kg/injection, schedule: Q04DX003 (ip), vehicle: saline 105 % of control | dose: 40.0 mg/kg/injection, schedule: Q04DX003 (ip), vehicle: saline 102 % of control | [1] 103 % of control | dose: 80.0 mg/kg/injection, schedule: Q04DX003 (ip), vehicle: saline 117 % of control | [2] 98 % of control | dose: 160.0 mg/kg/injection, schedule: Q04DX003 (ip), vehicle: saline 108 % of control | dose: 200.0 mg/kg/injection, schedule: Q01DX009 (ip), vehicle: saline 102 % of control | dose: 400.0 mg/kg/injection, schedule: Q01DX009 (ip), vehicle: saline 94 % of control

O=C(OCC1CC1)c1cc([N+](=O)[O-])cc([N+](=O)[O-])c1
inactive: dose: 25.0 mg/kg/injection, schedule: Q04DX003 (ip), vehicle: saline with Tween-80 108 % of control | dose: 50.0 mg/kg/injection, schedule: Q04DX003 (ip), vehicle: saline with Tween-80 106 % of control | [3] 101 % of control

CC(=O)Nc1nc(/C=N/NC(N)=S)cc(=O)[nH]1
inactive: dose: 75.0 mg/kg/injection, schedule: Q01DX001 (ip), vehicle: other 100 % of control | dose: 150.0 mg/kg/injection, schedule: Q01DX001 (ip), vehicle: other 96 % of control | dose: 300.0 mg/kg/injection, schedule: Q01DX001 (ip), vehicle: other 105 % of control

CCC(=O)c1ccc(OC)cc1
inactive: [4] 91 % of control | [5] 91 % of control | [6] 91 % of control

O=C(COc1ccccc1Cl)NCc1ccc(Cl)cc1
inactive: dose: 100.0 mg/kg/injection, schedule: Q01DX009 (ip), vehicle: Klucel (hydroxypropylcellulose) (HPC) 92 % of control | [7] 93 % of control | dose: 200.0 mg/kg/injection, schedule: Q01DX009 (ip), vehicle: Klucel (hydroxypropylcellulose) (HPC) 88 % of control | [8] 95 % of control | dose: 400.0 mg/kg/injection, schedule: Q01DX009 (ip), vehicle: Klucel (hydroxypropylcellulose) (HPC) 103 % of control | [9] 93 % of control

CCCCP(=O)(CCCC)C1CCCC1
inactive: [10] 103 % of control | [11] 100 % of control | [12] 90 % of control

C[C@@H]1CC[C@@]2(OC1)O[C@H]1C[C@H]3[C@@H]4CC=C5C(C)(C)C(=O)C(O)=C[C@]5(C)[C@H]4CC[C@]3(C)[C@H]1[C@@H]2C
inactive: dose: 100.0 mg/kg/injection, schedule: Q04DX003 (sc), vehicle: steriod suspending solution 98 % of control | dose: 200.0 mg/kg/injection, schedule: Q04DX003 (sc), vehicle: steriod suspending solution 110 % of control | dose: 400.0 mg/kg/injection, schedule: Q04DX003 (sc), vehicle: steriod suspending solution 98 % of control

CCCCCCCCOC(=O)c1ccc2c(c1)Nc1cc3ccccc3cc1N2
inactive: [13] 105 % of control | dose: 200.0 mg/kg/injection, schedule: Q04DX002 (ip), vehicle: Klucel (hydroxypropylcellulose) (HPC) 101 % of control | dose: 400.0 mg/kg/injection, schedule: Q04DX002 (ip), vehicle: Klucel (hydroxypropylcellulose) (HPC) 92 % of control

ClC1=C2C=CC=CC2C(Cl)(c2ccccc2)C2C1=C(Cl)c1ccccc1C2(Cl)c1ccccc1 (centres undefined)
inactive: dose: 75.0 mg/kg/injection, schedule: Q01DX001 (ip), vehicle: saline 95 % of control | dose: 150.0 mg/kg/injection, schedule: Q01DX001 (ip), vehicle: saline 97 % of control | dose: 300.0 mg/kg/injection, schedule: Q01DX001 (ip), vehicle: saline 90 % of control

COC(=O)CNC(=O)C1CSC(C)(C)N1 (centres undefined)
inactive: dose: 100.0 mg/kg/injection, schedule: Q01DX001 (ip), vehicle: steriod suspending solution 100 % of control | dose: 200.0 mg/kg/injection, schedule: Q01DX001 (ip), vehicle: steriod suspending solution 97 % of control | dose: 400.0 mg/kg/injection, schedule: Q01DX001 (ip), vehicle: steriod suspending solution 100 % of control

COc1ccc(NC(=S)/C(=C(/[O-])c2ccc(C)cc2)[n+]2ccccc2)cc1
inactive: [10] 92 % of control | [4] 95 % of control and 96 % of control | [3] 105 % of control and 108 % of control and 90 % of control | [11] 102 % of control | [5] 97 % of control and 110 % of control | [14] 93 % of control and 98 % of control and 105 % of control | [12] 94 % of control | [6] 98 % of control and 104 % of control | [15] 93 % of control and 95 % of control and 91 % of control

CN(C)CCC(c1ccccc1)c1cc(Cl)ccn1 (centres undefined)
inactive: dose: 6.25 mg/kg/injection, schedule: Q01DX009 (ip), vehicle: saline 95 % of control | dose: 12.5 mg/kg/injection, schedule: Q01DX009 (ip), vehicle: saline 97 % of control | dose: 12.5 mg/kg/injection, schedule: Q04DX003 (ip), vehicle: saline 106 % of control | dose: 25.0 mg/kg/injection, schedule: Q01DX009 (ip), vehicle: saline 95 % of control | dose: 25.0 mg/kg/injection, schedule: Q04DX003 (ip), vehicle: saline 103 % of control | [1] 97 % of control | dose: 50.0 mg/kg/injection, schedule: Q04DX003 (ip), vehicle: saline 103 % of control | [2] 100 % of control | [16] 106 % of control

O=c1ccn(CCCOc2ccccc2)c(=O)[nH]1
inactive: dose: 25.0 mg/kg/injection, schedule: Q04DX002 (ip), vehicle: Klucel (hydroxypropylcellulose) (HPC) 102 % of control | dose: 50.0 mg/kg/injection, schedule: Q04DX002 (ip), vehicle: Klucel (hydroxypropylcellulose) (HPC) 102 % of control | [13] 106 % of control

O=S(N=C(C(F)(F)F)C(F)(F)F)C(F)(F)F (centres undefined)
inactive: dose: 50.0 mg/kg/injection, schedule: Q01DX001 (ip), vehicle: Klucel (hydroxypropylcellulose) (HPC) 92 % of control | dose: 100.0 mg/kg/injection, schedule: Q01DX001 (ip), vehicle: Klucel (hydroxypropylcellulose) (HPC) 106 % of control

CCC(CO)Nc1nc2c(Cl)cc(Cl)cc2c2ccccc12 (centres undefined)
inactive: [7] 100 % of control | [8] 100 % of control | [9] 90 % of control

CNCc1nc2ccccc2c(C)[n+]1[O-]
inactive: [16] 97 % of control | dose: 200.0 mg/kg/injection, schedule: Q04DX003 (ip), vehicle: saline 97 % of control | dose: 400.0 mg/kg/injection, schedule: Q04DX003 (ip), vehicle: saline 95 % of control

Cc1ccc(NC(=O)COc2c(C)cc(Cl)cc2Cl)cc1
inactive: [4] 107 % of control | [5] 96 % of control | [6] 93 % of control

COC(=O)C(CSCSC)NC(=O)/C=C\c1ccccc1 (centres undefined)
inactive: dose: 100.0 mg/kg/injection, schedule: Q01DX009 (ip), vehicle: saline with Tween-80 88 % of control | [3] 97 % of control | dose: 200.0 mg/kg/injection, schedule: Q01DX009 (ip), vehicle: saline with Tween-80 88 % of control | [14] 97 % of control | dose: 400.0 mg/kg/injection, schedule: Q01DX009 (ip), vehicle: saline with Tween-80 96 % of control | [15] 94 % of control
